Test results from patent US20190307776A1, “AZA-S[…] HUMAN IMMUNODEFICIENCY VIRUS REPLICATION” (priority 2016, published 2019).

These molecules were tested on recombinant NL4-3 virus (assay: HIV cell culture assay). Settings: Human immunodeficiency virus 1, NL43, MT2.
Type: cell-based
Experimental: HIV cell culture assay—MT-2 cells and 293T cells were obtained from the NIH AIDS Research and Reference Reagent Program. MT-2 cells were propagated in RPMI 1640 media supplemented with 10% heat inactivated fetal bovine serum, 100 […]. The 293T cells were propagated in DMEM media supplemented with 10% heat inactivated fetal bovine serum (FBS), 100 units/ml penicillin G and 100 μg/ml streptomycin. The proviral DNA clone of NL4-3 was obtained from the NIH AIDS Research and Reference Reagent Program. A recombinant NL4-3 virus, in which a section of the nef gene from NL4-3 was replaced with the Renilla luciferase gene, was used as a reference virus. In addition, residue Gag P373 was converted to P373S. Briefly, the recombinant virus was prepared by transfection of the altered proviral clone of NL4-3. Transfections were performed in 293T cells using LipofectAMINE PLUS from Invitrogen (Carlsbad, Calif.), according to manufacturer's instruction. The virus was titered in MT-2 cells using luciferase enzyme activity as a marker. Luciferase was quantitated using the Dual Luciferase kit from Promega (Madison, Wis.), with modifications to the manufacturer's protocol. The diluted Passive Lysis solution was pre-mixed with the re-suspended Luciferase Assay Reagent and the re-suspended Stop & Glo Substrate (2:1:1 ratio). Fifty (50) μL of the mixture was added to each aspirated well on assay plates and luciferase activity was measured immediately on a Wallac TriLux (Perkin-Elmer). Antiviral activities of inhibitors toward the recombinant virus were quantified by measuring luciferase activity in cells infected for 4-5 days with NLRluc recombinants in the presence serial dilutions of the inhibitor.

Going from C=C(C)[C@@H]1CC[C@]2(CO)CC[C@]3(C)[C@H](CC[C@@H]4[C@@]5(C)CCCN(S(=O)(=O)c6ccc(C(=O)O)cc6)C(C)(C)C5CC[C@]43C)[C@@H]12 (stereo partly drawn) [Example 14, 4-(((7aR,7bR,9aS,12R,12aR,12bR,14aR,14bR)-9a-(hydroxymethyl)-5,5,7a,7b,14b-pentamethyl-12-(prop-1-en-2-yl)icosahydrocyclopenta[7,8]phenanthro[2,1-c]azepin-4(1H)-yl)sulfonyl)benzoic acid] to C=C(C)[C@@H]1CC[C@]2(CO)CC[C@]3(C)[C@H](CC[C@@H]4[C@@]5(C)CCCN(S(=O)(=O)c6ccc(/C=C/C(=O)O)cc6)C(C)(C)C5CC[C@]43C)[C@@H]12 (stereo partly drawn) [Example 12, (E)-3-(4-(((7aR,7bR,9aS,12R,12aR,12bR,14aR,14bR)-9a-(hydroxymethyl)-5,5,7a,7b,14b-pentamethyl-12-(prop-1-en-2-yl)icosahydrocyclopenta[7,8]phenanthro[2,1-c]azepin-4(1H)-yl)sulfonyl)phenyl)acrylic acid], the EC50 rises from 1700 nM to greater than 8000 nM.

First: C=C(C)[C@@H]1CC[C@]2(CNCCCN3CCS(=O)(=O)CC3)CC[C@]3(C)[C@H](CC[C@@H]4[C@@]5(C)CCN(C(=O)CCc6ccc(C(=O)O)cc6)C(C)(C)[C@@H]5CC[C@]43C)[C@@H]12 [Example 28, 4-(3-((4aR,6aR,6bR,8aS,11R,11aR,11bR,13aR,13bR)-8a-(((3-(1,1-dioxidothiomorpholino)propyl)amino)methyl)-4,4,6a,6b,13b-pentamethyl-11-(prop-1-en-2-yl)hexadecahydro-1H-cyclopenta[5,6]naphtho[2,1-f]isoquinolin-3(2H,4H,13bH)-yl)-3-oxopropyl)benzoic acid]
Second: C=C(C)[C@@H]1CC[C@]2(CNCCCN3CCS(=O)(=O)CC3)CC[C@]3(C)[C@H](CC[C@@H]4[C@@]5(C)CCN(C(=O)CC(C)(C)C(=O)O)C(C)(C)[C@@H]5CC[C@]43C)[C@@H]12 [Example 23, 4-((4aR,6aR,6bR,8aS,11R,11aR,11bR,13aR,13bR)-8a-(((3-(1,1-dioxidothiomorpholino)propyl)amino)methyl)-4,4,6a,6b,13b-pentamethyl-11-(prop-1-en-2-yl)icosahydro-3H-cyclopenta[5,6]naphtho[2,1-f]isoquinolin-3-yl)-2,2-dimethyl-4-oxobutanoic acid]
The EC50 of the first is 2.4-fold higher: 940 nM for the first, 390 nM for the second.

C=C(C)[C@@H]1CC[C@]2(CNCCCN3CCS(=O)(=O)CC3)CC[C@]3(C)[C@H](CC[C@@H]4[C@@]5(C)CCN(c6ccc(C(=O)O)nn6)C(C)(C)[C@@H]5CC[C@]43C)[C@@H]12 [Example 54, 6-((4aR,6aR,6bR,8aS,11R,11aR,11bR,13aR,13bR)-8a-(((3-(1,1-dioxidothiomorpholino)propyl)amino)methyl)-4,4,6a,6b,13b-pentamethyl-11-(prop-1-en-2-yl)hexadecahydro-1H-cyclopenta[5,6]naphtho[2,1-f]isoquinolin-3(2H,4H,13bH)-yl)pyridazine-3-carboxylic acid] and C=C(C)[C@@H]1CC[C@]2(CNCCCN3CCS(=O)(=O)CC3)CC[C@]3(C)[C@H](CC[C@@H]4[C@@]5(C)CCN(c6ccc(C(N)=O)cn6)C(C)(C)[C@@H]5CC[C@]43C)[C@@H]12 [Example 41, 6-((4aR,6aR,6bR,8aS,11R,11aR,11bR,13aR,13bR)-8a-(((3-(1,1-dioxidothiomorpholino)propyl)amino)methyl)-4,4,6a,6b,13b-pentamethyl-11-(prop-1-en-2-yl)hexadecahydro-1H-cyclopenta[5,6]naphtho[2,1-f]isoquinolin-3(2H,4H,13bH)-yl)nicotinamide] are within 1.5-fold of each other in EC50: 280 nM for the first, 400 nM for the second.

First: C=C(C)[C@@H]1CC[C@]2(C(=O)O)CC[C@]3(C)[C@H](CC[C@@H]4[C@@]5(C)CCN(c6ncc(C(=O)O)cn6)C(C)(C)[C@@H]5CC[C@]43C)[C@@H]12 [Example 52, (4aR,6aR,6bR,8aS,11R,11aR,11bR,13aR,13bR)-3-(5-carboxypyrimidin-2-yl)-4,4,6a,6b,13b-pentamethyl-11-(prop-1-en-2-yl)icosahydro-1H-cyclopenta[5,6]naphtho[2,1-f]isoquinoline-8a-carboxylic acid]
Second: C=C(C)[C@@H]1CC[C@]2(CO)CC[C@]3(C)[C@H](CC[C@@H]4[C@@]5(C)CCN(C(=O)CC(=O)O)C(C)(C)C5CC[C@]43C)[C@@H]12 (stereo partly drawn) [Example 7, 3-((6aR,6bR,8aS,11R,11aR,11bR,13aR,13bR)-8a-(hydroxymethyl)-4,4,6a,6b,13b-pentamethyl-11-(prop-1-en-2-yl)icosahydro-3H-cyclopenta[5,6]naphtho[2,1-f]isoquinolin-3-yl)-3-oxopropanoic acid]
The EC50 of the first is 7.7-fold lower: 62 nM for the first, 480 nM for the second.

First: C=C(C)[C@@H]1CC[C@]2(CNCCCN3CCS(=O)(=O)CC3)CC[C@]3(C)[C@H](CC[C@@H]4[C@@]5(C)CCN(c6c(O)c(=O)c6=O)C(C)(C)[C@@H]5CC[C@]43C)[C@@H]12 [Example 55, 3-((4aR,6aR,6bR,8aS,11R,11aR,11bR,13aR,13bR)-8a-(((3-(1,1-dioxidothiomorpholino)propyl)amino)methyl)-4,4,6a,6b,13b-pentamethyl-11-(prop-1-en-2-yl)hexadecahydro-1H-cyclopenta[5,6]naphtho[2,1-f]isoquinolin-3(2H,4H,13bH)-yl)-4-hydroxycyclobut-3-ene-1,2-dione]
Second: C=C(C)[C@@H]1CC[C@]2(CNCCCN3CCS(=O)(=O)CC3)CC[C@]3(C)[C@H](CC[C@@H]4[C@@]5(C)CCN(c6ccc(N)cc6)C(C)(C)[C@@H]5CC[C@]43C)[C@@H]12 [Example 47, 4-(3-((((4aR,6aR,6bR,8aS,11R,11aR,11bR,13aR,13bR)-3-(4-aminophenyl)-4,4,6a,6b,13b-pentamethyl-11-(prop-1-en-2-yl)icosahydro-1H-cyclopenta[5,6]naphtho[2,1-f]isoquinolin-8a-yl)methyl)amino)propyl)thiomorpholine 1,1-dioxide]
The EC50 of the first is lower: 250 nM for the first, greater than 330 nM for the second. The first is the more potent here.

Compared with C=C(C)[C@@H]1CC[C@]2(CO)CC[C@]3(C)[C@H](CC[C@@H]4[C@@]5(C)CCCN(C(=O)CCCCC(=O)O)C(C)(C)C5CC[C@]43C)[C@@H]12 (stereo partly drawn) [Example 4, 6-((7aR,7bR,9aS,12R,12aR,12bR,14aR,14bR)-9a-(hydroxymethyl)-5,5,7a,7b,14b-pentamethyl-12-(prop-1-en-2-yl)icosahydrocyclopenta[7,8]phenanthro[2,1-c]azepin-4(1H)-yl)-6-oxohexanoic acid], C=C(C)[C@@H]1CC[C@]2(CNCCCN3CCS(=O)(=O)CC3)CC[C@]3(C)[C@H](CC[C@@H]4[C@@]5(C)CCN(c6ccc(C(=O)O)c(F)c6)C(C)(C)[C@@H]5CC[C@]43C)[C@@H]12 [Example 45, 4-((4aR,6aR,6bR,8aS,11R,11aR,11bR,13aR,13bR)-8a-(((3-(1,1-dioxidothiomorpholino)propyl)amino)methyl)-4,4,6a,6b,13b-pentamethyl-11-(prop-1-en-2-yl)icosahdro-3H-cyclopenta[5,6]naphtho[2,1-f]isoquinolin-3-yl)-2-fluorobenzoic acid] is lower in EC50: greater than 8000 nM for the first, 20 nM for the second. The second is the more potent here.

Compared with C=C(C)[C@@H]1CC[C@]2(CN(C)CCCN3CCS(=O)(=O)CC3)CC[C@]3(C)[C@H](CC[C@@H]4[C@@]5(C)CCN(c6ccc(C(=O)O)nc6)C(C)(C)[C@@H]5CC[C@]43C)[C@@H]12 [Example 51, 5-((4aR,6aR,6bR,8aS,11R,11aR,11bR,13aR,13bR)-8a-(((3-(1,1-dioxidothiomorpholino)propyl)(methyl)amino)methyl)-4,4,6a,6b,13b-pentamethyl-11-(prop-1-en-2-yl)hexadecahydro-1H-cyclopenta[5,6]naphtho[2,1-f]isoquinolin-3(2H,4H,13bH)-yl)picolinic acid], C=C(C)[C@@H]1CC[C@]2(CNCCCN3CCS(=O)(=O)CC3)CC[C@]3(C)[C@H](CC[C@@H]4[C@@]5(C)CCN(c6ccc([N+](=O)[O-])cc6)C(C)(C)[C@@H]5CC[C@]43C)[C@@H]12 [Example 46, 4-(3-((((4aR,6aR,6bR,8aS,11R,11aR,11bR,13aR,13bR)-4,4,6a,6b,13b-pentamethyl-3-(4-nitrophenyl)-11-(prop-1-en-2-yl)icosahydro-1H-cyclopenta[5,6]naphtho[2,1-f]isoquinolin-8a-yl)methyl)amino)propyl)thiomorpholine 1,1-dioxide] is higher in EC50: 26 nM for the first, greater than 330 nM for the second.

C=C(C)[C@@H]1CC[C@]2(CNCCCN3CCS(=O)(=O)CC3)CC[C@]3(C)[C@H](CC[C@@H]4[C@@]5(C)CCN(c6ccc(C#N)cn6)C(C)(C)[C@@H]5CC[C@]43C)[C@@H]12 [Example 40, 6-((4aR,6aR,6bR,8aS,11R,11aR,11bR,13aR,13bR)-8a-(((3-(1,1-dioxidothiomorpholino)propyl)amino)methyl)-4,4,6a,6b,13b-pentamethyl-11-(prop-1-en-2-yl)hexadecahydro-1H-cyclopenta[5,6]naphtho[2,1-f]isoquinolin-3(2H,4H,13bH)-yl)nicotinonitrile] gave an EC50 of 760 nM.
